Patent US9937262B2 (priority 2013, dated 2018)
≈ marks a conversion by molar mass, not a printed value. Read-outs that look alike come from different tables or passages of the source.

How the values were obtained:
[1] = human
Description: At 37±0.5° C., the hydrolysis rate of the prodrugs was measured in 80% human plasma. An appropriate aliquot (20-100 μL) of 1 mg/ml prodrug solution in methanol was transferred to 5.0 ml of preheated plasma. At appropriate time intervals, 300 μl sample aliquots were withdrawn and transferred to 600 μl acetonitrile and mixed thoroughly. After centrifugation at 13500 rpm for 5 min, the supernatant was analyzed by HPLC for parent drug and remaining prodrug.

[2] = Stability (cleavage to parent drug) of prodrug suspensions in PBS pH 7.4; format: physicochemical; details: for estimated pseudo first-order rate constant (khyd) for cleavage: PBS pH 7.4, 37° C., calculated from k0 and Sprodrug; for apparent pseudo-zero-order rate constant (k0): appearance of parent drug from suspension in PBS pH 7.4, 37° C.
Description: Suspensions of the prodrugs in 67 mM phosphate buffer pH 7.4 (PBS) were prepared by adding 10 mL PBS to approximately 5 mg prodrug. The suspensions were kept unstirred at 37° C. in an incubator hood. At appropriate time intervals over 23 days, about 500 μL samples were taken and after filtration (disposable syringe filters), the solutions were analyzed immediately by HPLC for parent drug and remaining prodrug. Quantitation of parent drug and prodrug was done from peak area measurements in relations to those of standards analysed by HPLC at the same conditions. […] Reversed phase chromatography was performed using a C18 Gemini® RP column (150×4.6 mm, 5 μm particles) (Phenomenex, Torrance, Calif., USA) equipped with a SecurityGuard precolumn (Phenomenex, Torrance, Calif., USA). The flow rate was set at 1 mL/min and the column effluent was monitored at 230 nm. The mobile phase consisted of 35% (v/v) acetonitrile and 65% (v/v) of 0.1% (v/v) phosphoric acid pH 3.2. The retention times varied in the range of 3 to 30 min.
From the observed relatively stable concentration of dissolved prodrugs measured in the suspensions after 8-9 day up to 23 days, the solubilities of the prodrugs (Sprodrug) were determined. In this time interval, the rate of appearance of parent drug was determined and an apparent pseudo-zero-order rate constant (k0) was obtained. By assuming that the dissolution rates were much faster than the conversion of the prodrugs to the parent drug, pseudo first-order rate constants (khyd) for cleavage of the prodrugs were calculated according to:

[3] = Solubility of the prodrugs in PBS (67 mM phosphate buffer pH 7.4) at 37° C.; format: physicochemical; details: 67 mM phosphate buffer pH 7.4 (PBS), aqueous buffer, thermodynamic from solid, read-out: Sprodrug ± SD
Description: The determination of the solubility of a prodrug at different pH values of interest according to the present invention is carried by adding excess solid prodrug to a container containing a buffer solution with well-defined pH. The mixture is rotated at constant temperature until an equilibrium between solid prodrug and prodrug in solution has established (that is until the prodrug concentration in the supernatant remains constant). At each measurement the pH of the supernatant is controlled and eventually adjusted to the desired pH.
Suspensions of the prodrugs in 67 mM phosphate buffer pH 7.4 (PBS) were prepared by adding 10 mL PBS to approximately 5 mg prodrug. The suspensions were kept unstirred at 37° C. in an incubator hood. At appropriate time intervals over 23 days, about 500 μL samples were taken and after filtration (disposable syringe filters), the solutions were analyzed immediately by HPLC for parent drug and remaining prodrug. Quantitation of parent drug and prodrug was done from peak area measurements in relations to those of standards analysed by HPLC at the same conditions. […] The flow rate was set at 1 mL/min and the column effluent was monitored at 230 nm. […]
From the observed relatively stable concentration of dissolved prodrugs measured in the suspensions after 8-9 day up to 23 days, the solubilities of the prodrugs (Sprodrug) were determined. […]

[4] = Solubility of DPX-2-0006 at pH 3 in the presence of N,N-dimethyl acetamide (DMA); format: physicochemical; details: aqueous with cosolvent or surfactant or cyclodextrin, thermodynamic from solid, acidic suspension (pH 3), 37° C.
Description: A suspension of DPX-2-0006 was formed by adding 10 mg to 3 mL demineralized water, 0.05 mL 0.100 M HCl was added to obtain a pH of 3. After rotation of the suspension at 37° C. for 1 days, 0.5 mL sample was taken and after filtration (disposable syringe filters), the solution was diluted in methanol:water 1:1 and analyzed immediately by HPLC for prodrug. […] The HPLC method described in Example 29 was applied and the retention time of DPX-2-0006 was 14 min, respectively. N,N-dimethylacetamide (DMA) was added stepwise to the acidic suspension of DPX-2-0006 and the amount of DPX-2-0006 dissolved in the presence of various volumes of DMA was determined after 1-3 days rotation at 37° C. as described above.

[5] = Precipitation on addition of acidic prodrug solution to 67 mM phosphate buffer pH 7.4; format: physicochemical; details: 1.0 mL concentrated aqueous solution pH 3.4 added to 1.0 mL 67 mM phosphate buffer pH 7.4
Description: The pH in the suspension was measured to 7.0.

| estimated pseudo first-order rate constant (khyd) for cleavage [2] [day⁻¹] | apparent pseudo-zero-order rate constant (k0) [2] [M/day] | Structure (SMILES) | further results |
| --- | --- | --- | --- |
| – | – | COc1ccc2cc(C(C)C(=O)OCCn3ccnc3)ccc2c1 (stereo not shown) | t1/2 in plasma (hydrolysis) [1]: 1.07 h |
| 0.15 | 1.1e-06 | O=C(Cc1ccccc1Nc1c(Cl)cccc1Cl)OCCc1ccccn1 [DPX-1-0004, 2-(pyridin-2-yl)ethyl 2-(2-((2,6-dichlorophenyl)amino)phenyl)acetate] | – |
| 0.17 | 2.4e-06 | O=C(Cc1ccccc1Nc1c(Cl)cccc1Cl)OCCn1cnc2ccccc21 [DPX-1-0006, 2-(1H-benzo[d]imidazol-1-yl)ethyl 2-(2-((2,6-dichlorophenyl)amino)phenyl)acetate] | – |
| 0.0029 | 2.5e-07 | O=C(Cc1ccccc1Nc1c(Cl)cccc1Cl)OCCn1ccnc1-c1ccccc1 [DPX-1-0007, 2-(2-phenyl-1H-imidazol-1-yl)ethyl 2-(2-((2,6-dichlorophenyl)amino)phenyl)acetate] | – |
| 0.033 | 1.7e-06 | COc1ccc2cc(C(C)C(=O)OCCc3ccccn3)ccc2c1 (stereo not shown) [DPX-2-0004, 2-(pyridin-2-yl)ethyl 2-(6-methoxynaphthalen-2-yl)propanoate] | – |
| 0.066 | 1e-06 | COc1ccc2cc(C(C)C(=O)OCCn3cnc4ccccc43)ccc2c1 (stereo not shown) [DPX-2-0006, 2-(1H-benzo[d]imidazol-1-yl)ethyl 2-(6-methoxynaphthalen-2-yl)propanoate] | solubility thermodynamic [3]: 5 ± 1 µg/mL (≈ 13.4 µM); solubility ([4]; acidified demineralized water with 5% (v/v) DMA, 5% (v/v) DMA, read-out: solubility in the presence of 5% (v/v) DMA): 250 µg/mL; solubility ([4]; acidified demineralized water with 15% (v/v) DMA, 15% (v/v) DMA, read-out: solubility in the presence of 15% (v/v) DMA): 350 µg/mL; solubility ([4]; acidified demineralized water with 30% (v/v) DMA, 30% (v/v) DMA, read-out: solubility in the presence of 30% (v/v) DMA): 570 µg/mL; solubility ([4]; acidified demineralized water with 50% (v/v) DMA, 50% (v/v) DMA, read-out: solubility in the presence of 50% (v/v) DMA): 2250 µg/mL |
| 0.065 | 1e-06 | COc1ccc2cc(C(C)C(=O)OCCn3ccnc3-c3ccccc3)ccc2c1 (stereo not shown) [DPX-2-0007, 2-(2-phenyl-1H-imidazol-1-yl)ethyl 2-(6-methoxynaphthalen-2-yl)propanoate] | precipitation on mixing with buffer pH 7.4 [5]: a precipitation was immediately observed |
